Key:
[1] = Transfer hydrogenation: reduction of NAD+ with formate as hydride donor (1H-NMR); settings: for TOF (turnover frequency) for the reduction of NAD+: NAD+ 9 mol. equiv., formate 28 mol. equiv., pH* 7.4 ± 0.2, 310 K, complex 1.1 mM in MeOD/D2O (1:1 v/v)
Protocol: The ability of complexes 1–4 to oxidise NADH was investigated. The ^1H-NMR spectra show an increase of the NAD^+ signals over time (Figure 3). However, the reaction is very slow and after 8 h only around 10% of NADH is converted to NAD^+. […] The possibility of using compounds 1–4 as a transfer hydrogenation catalyst to reduce NAD^+ was investigated (Materials and Methods section). Compounds 1–4 reduced NAD^+ with turnover frequencies (TOF) between 6 and 15 h^−1 (Table 1), which is within the range of previously reported compounds [51, 53, 74, 75, 76]. Remarkably, under the conditions here reported (MeOD/D2O 1:1 v/v, 310 K, pH* 7.4 ± 0.2), the iridium complex 2 reduced nine molar equivalents of NAD^+ within the initial 10 min. However, no TOF could be calculated for this compound, owing to the speed of the reaction.
Transfer hydrogenation reactions with complexes 1–4, formate, and NAD^+ were studied by mixing a solution of the corresponding complex (2.2 mM, MeOD), sodium formate (137 mM, D2O) and NAD^+ (44 mM, D2O). Final concentrations of 1.1 mM for the complex, 10 mM for NAD^+ and 30 mM for NaHCO2 were obtained (molar ratio 1:9:28). The pH of the mixture was adjusted to 7.4 ± 0.2. ^1H-NMR spectra were recorded at 310 K every 5 min until completion of the reaction.
Molar ratios of NAD^+ and NADH were determined by integrating the area under the signals associated with NAD^+ (9.33 ppm) and 1,4-NADH (6.96 ppm). The turnover number (TON) for the reaction was calculated as follows: (1) TONI6.96/I6.96+[…][NAD^+]0/[Catalyst] where In is the integral of the signal at n ppm and [NAD^+]0 is the concentration of NAD^+ at the start of the reaction.

[2] = tested on: A2780 cells; assay: Cell viability of A2780 cells, co-incubation with N-acetylcysteine (NAC); assay type: cell-based; settings: complex at IC50 concentration, NAC 0, 2, 5 and 10 mM
Protocol: In order to determine whether ROS formation is a plausible explanation for the activity of these compounds, A2780 cells were treated at IC50 concentrations of 1–4 in combination with increasing concentrations of N-acetylcysteine (NAC; 0, 2, 5 and 10 mM; Figure 4). NAC is a known compound that can act as an ROS scavenger in cells and can be used to counteract the effects of complexes that affect ROS levels. […] However, this effect is not observed with the Os and Ru analogues.
Cells were incubated in 96-well plates at a concentration of 7.5 × 10^3 cells per well and the plates were incubated for 24 h at 37 °C and a 5% CO2 humidified atmosphere prior to drug exposure. Complexes were dissolved in DMSO to provide stock solutions, which were further diluted with media to working concentrations. Solution of N-acetylcysteine (NAC) or sodium formate in media were also prepared. Drug-media solutions and NAC or sodium formate solutions were added to cells (final concentrations as follows: IC50 values for the complex; 0, 2, 5 and 10 mM for NAC; 0, 0.5, 1 and 2 mM for sodium formate; DMSO concentration was less than 1% (v/v) in all cases) and incubated for 24 h at 37 °C in a 5% CO2 humidified atmosphere. After 24 h of incubation, the drug-media was removed from the wells and the cells were washed with PBS (100 μL, twice), and 100 μL of complete fresh media were added to each well. The plates were further incubated for 48 h at 37 °C in a 5% CO2 humidified atmosphere to allow for a period of recovery. 3-(4,5-dimethylthiazol-2-yl)-2,5-diphenyltetrazolium bromide (MTT) (20 μL, 2.5 mg/mL) was added to each well and incubated for 2 h at 37 °C and 5% CO2 humidified atmosphere. All solutions were then removed and 100 μL of DMSO was added to each well in order to dissolve the purple formazan crystals. A Thermo Scientific Multiskan EX microplate photometer was used to measure the absorbance in each well at 570 nm. Cell survival was determined as the absorbance of treated cells divided by the absorbance of controls and expressed as a percentage.

[3] = tested on: A2780cisR cells; assay: Chemosensitivity assay (MTT) in A2780cisR cells; assay type: cell-based; settings: for IC50: 24 h exposure + 48 h recovery, MTT, mean ± SD
Text: (§1) The antiproliferative activity of the ind-py ligand and of complexes 1–4 against ovarian cancer A2780 (cisplatin sensitive) and A2780cisR (cisplatin resistant) cell lines was studied. The IC50 values obtained for all the complexes are shown in Table 2, together with values for cisplatin, which was used as a positive control (untreated cells for 100% viability as negative control). […] One of the major limitations of existing anticancer drugs is their poor selectivity towards cancer cells. Comparing the response of the cancer cell lines to the normal PNT2 cells provides a preliminary indication towards the selectivity of the compounds.
(§2) In vitro chemosensitivity tests were performed against A2780, A2780cisR and PNT2 cells. Cells were routinely maintained as monolayer cultures in RPMI medium supplemented with 10% foetal calf serum, penicillin (100 I.U./mL) and streptomycin (100 μg/mL), sodium pyruvate (1 mM) and L-glutamine (2 mM). For chemosensitivity studies, cells were incubated in 96-well plates at a concentration of 7.5 × 10^3 cells per well and the plates were incubated for 24 h at 37 °C and a 5% CO2 humidified atmosphere prior to drug exposure.
(§3) Complexes were dissolved in DMSO to provide stock solutions, which were further diluted with media to provide a range of final concentrations. Drug-media solutions were added to cells (the final concentration of DMSO was less than 1% (v/v) in all cases) and incubated for 24 h at 37 °C and 5% CO2 humidified atmosphere. The drug-media was removed from the wells and the cells were washed with PBS (100 μL, twice), and 100 μL of complete fresh media were added to each well. The plates were further incubated for 48 h at 37 °C in a 5% CO2 humidified atmosphere to allow for a period of recovery. 3-(4,5-dimethylthiazol-2-yl)-2,5-diphenyltetrazolium bromide (MTT) (20 μL, 2.5 mg/mL) was added to each well and incubated for 2 h at 37 °C and 5% CO2 humidified atmosphere. All solutions were then removed and 100 μL of DMSO was added to each well in order to dissolve the purple formazan crystals. A Thermo Scientific Multiskan EX microplate photometer was used to measure the absorbance in each well at 570 nm. Cell survival was determined as the absorbance of treated cells divided by the absorbance of controls and expressed as a percentage. The IC50 values were determined from plots of % survival against drug concentration. Each experiment was repeated in triplicates of triplicates and a mean value was obtained and stated as IC50 (μM) ± SD. Cisplatin was also used as a positive control.

[4] = tested on: PNT2 cells; assay: Chemosensitivity assay (MTT) in PNT2 cells; assay type: cell-based; settings: 24 h exposure + 48 h recovery, MTT; mean ± SD
Text: as §1, §2, §3

Compound | TOF (turnover frequency) for the reduction of NAD+ [1] | Effect on cell viability in NAC-supplemented cells [2] | IC50 [3] | IC50 [4] | TOF (printed in Figure 3C) ([1]; 28 mol. equiv. formate, 9 mol. equiv. NAD+, MeOD/D2O 1/1 v/v, pH 7.4, 310 K, in 1/h) | Time to reduce nine molar equivalents of NAD+ ([1]; MeOD/D2O 1:1 v/v, 310 K, pH* 7.4 ± 0.2, formate 28 mol. equiv.) | Activity against A2780cisR compared with A2780 (cross-resistance) ([3]; comparison of IC50 values)
Cc1ccc(C(C)C)cc1.[Cl-].[Ru+2].c1ccc(-c2cc3ccccc3[n-]2)nc1 [complex 3, [(p-cym)Ru(ind-py)Cl]] | 7.95 ± 0.81 h⁻¹ | not observed | 62.8 ± 5.3 µM | 54.3 ± 5.4 µM | – | – | –
Cc1c(C)c(C)[c-](C)c1C.[Cl-].[Rh+3].c1ccc(-c2cc3ccccc3[n-]2)nc1 [complex 1, [Cp*Rh(ind-py)Cl]] | 14.6 ± 0.7 h⁻¹ | significant decrease of the cell viability | 21.5 ± 3.5 µM | 34.7 ± 6.1 µM | 14.63 ± 0.78 | – | –
Cc1c(C)c(C)[c-](C)c1C.[Cl-].[Ir+3].c1ccc(-c2cc3ccccc3[n-]2)nc1 [complex 2, [Cp*Ir(ind-py)Cl]] | – | significant decrease of the cell viability | 32.7 ± 1.7 µM | 32.1 ± 3.9 µM | – | ≤ 10 min | –
Cc1ccc(C(C)C)cc1.[Cl-].[Os+2].c1ccc(-c2cc3ccccc3[n-]2)nc1 [complex 4, [(p-cym)Os(ind-py)Cl]] | 5.74 ± 0.35 h⁻¹ | not observed | 21.5 ± 1.3 µM | 34.2 ± 2.2 µM | – | – | no significant difference in activity
